These results are taken from patent publication US20210139484A1, “DIHYDROISOQUINOLINE-2(1H)-CARBOXAMIDE AND RELATED COMPOUNDS AND THEIR USE IN TREATING MEDICAL CONDITIONS” (GOSSAMER BIO SERVICES, INC., priority 2018, published 2021).

Some results are limits rather than exact numbers.

The target in one assay is T1, human HPK1 protein (Homo sapiens, UniProt Q92918).
T1 construct: recombinant human HPK1 protein (a.a. 1-346) was expressed in Sf9 insect cells; GST (N); purchased Signalchem M23-11G; host or cells: Sf9 insect cells (baculovirus)
T1 sequence (Q92918 1-346): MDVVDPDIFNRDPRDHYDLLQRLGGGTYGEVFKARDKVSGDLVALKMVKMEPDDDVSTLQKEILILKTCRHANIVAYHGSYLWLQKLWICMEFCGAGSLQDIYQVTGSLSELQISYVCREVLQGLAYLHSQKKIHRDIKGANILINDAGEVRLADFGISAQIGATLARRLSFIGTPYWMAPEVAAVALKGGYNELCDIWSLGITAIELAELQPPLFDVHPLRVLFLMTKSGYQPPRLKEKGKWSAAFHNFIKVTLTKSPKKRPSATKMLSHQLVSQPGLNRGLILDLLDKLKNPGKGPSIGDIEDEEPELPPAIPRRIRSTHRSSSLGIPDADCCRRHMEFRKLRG
The assay can be described thus: Human HPK1 protein TR-FRET assay. In kind it is biochemical. As to conditions: 1 mM ATP, Table 19. A digest of the protocol:
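GST-tagged HPK1 (a.a. 1-346, Sf9-expressed) at 10 nM phosphorylated 100 nM ULight CREBtide with 1 mM ATP in Tris pH 7.5, MgCl2, NP-40, DTT, 1% DMSO, 60 minutes at room temperature. Phospho-Ser133 detected by Eu-antibody TR-FRET (665/615 nm ratio); IC50 from 4-parameter fit against DMSO control.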
The IC50 is the point on the concentration scale where inhibition reaches its midpoint. Low values mean greater potency, high ones weaker potency. `CCN1CCN(Cc2ccc(NC(=O)N3CCc4ccc(Oc5ccnc6[nH]c(-c7cnn(C)c7)cc56)cc4[C@@H]3C)cc2C(F)(F)F)CC1` [V-27] yielded a half-maximal inhibitory concentration (IC50) of under 500 nM. On the same count and under the same terms, in the case of `CCN1CCN(Cc2ccc(NC(=O)N3CCc4nc(C)c(Oc5ccnc6[nH]ccc56)cc4C3)cc2C(F)(F)F)CC1` [X-5] it was under 500 nM; in that of `CCN1CCN(Cc2ccc(NC(=O)N3Cc4cc(Oc5ncnc6[nH]c(C)cc56)cnc4C(C)C3)cc2C(F)(F)F)CC1` (stereo not drawn) [VII-18], under 500 nM; in that of `CCN1CCN(Cc2ccc(NC(=O)N3CCc4ccc(Oc5ccnc(NC)c5)cc4C3)cc2C(F)(F)F)CC1` [II-13], under 500 nM. In the case of `CC1CN(C(=O)Nc2cnc(OC3CCN(C)CC3)c(C(F)(F)F)c2)Cc2cc(Oc3ccnc4[nH]ncc34)cnc21` (stereo not drawn) [VII-11], the IC50 was 500 to 5000 nM. As for `CCN1CCN(Cc2ccc(NC(=O)N3CCc4nc(C)c(Oc5ccnc6[nH]ccc56)cc4C3C)cc2C(F)(F)F)CC1` (stereo not drawn) [IV-10], the half-maximal inhibitory concentration (IC50) is 500 to 5000 nM.

For `CCN1CCN(Cc2ccc(NC(=O)N3CCc4cc(F)c(Oc5ccnn6cccc56)cc4C3C)cc2C(F)(F)F)CC1` (stereo not drawn) [IV-31], the half-maximal inhibitory concentration (IC50) is under 500 nM.

`CCN1CCN(Cc2ccc(NC(=O)N3CCc4cc(F)c(Oc5ccnc6[nH]c(C)cc56)cc4C3C)cc2C(F)(F)F)CC1` (stereo not drawn) [IV-26] gave a concentration for half-maximal inhibition (IC50) of 500 to 5000 nM.

For `CCN1CCN(Cc2ccc(NC(=O)N3CCc4ncc(Oc5ccnc6[nH]ncc56)cc4C3C)cc2C(F)(F)F)CC1` (single isomer, unassigned) [VIII-4], the IC50 was 500 to 5000 nM. Compound `CCN1CCN(Cc2ccc(NC(=O)N3CCc4ccc(Oc5ccnn6cc(Cl)cc56)cc4C3)cc2C(F)(F)F)CC1` [II-23] gave a half-maximal inhibitory concentration (IC50) of under 500 nM. Compound `CCN1CCN(Cc2ccc(NC(=O)N3Cc4cc(Oc5ccnc6[nH]c(C)cc56)ccc4C(C(C)C)C3)cc2C(F)(F)F)CC1` (stereo not drawn) [IV-36] came in with an IC50 of under 500 nM. Still for that read-out and setting: in the case of `Cc1cc2c(Oc3ccc4c(c3)[C@H](C)N(C(=O)Nc3cnc5c(N6CCN(C)CC6)cccc5c3)CC4)ccnc2[nH]1` [X-7] it was under 500 nM; in that of `CCC1CN(C(=O)Nc2ccc(CN3CCN(CC)CC3)c(C(F)(F)F)c2)Cc2cc(Oc3ccnc4[nH]c(C)cc34)cnc21` (single isomer, unassigned) [VII-23], under 500 nM; in that of `Cc1cc2c(Oc3ccc4c(c3)[C@H](C)N(C(=O)Nc3cnc(NC5CCN(C)CC5)c(C(F)(F)F)c3)CC4)ccnc2[nH]1` [VI-7], under 500 nM. The same measure, in the same setting: in the case of `CCN1CCN(Cc2ccc(NC(=O)N3CCc4c(C#N)cc(Oc5ccnc6[nH]ccc56)cc4C3C)cc2C(F)(F)F)CC1` (stereo not drawn) [IV-11] it was 500 to 5000 nM. Same read-out and setting: in the case of `CCN1CCN(Cc2ccc(NC(=O)N3CCc4ccc(Oc5ccnc6[nH]ccc56)cc4[C@@H]3C)cc2C(F)(F)F)CC1` [compound 6, (S)-7-((1H-Pyrrolo[2,3-b]pyridin-4-yl)oxy)-N-(4-((4-ethylpiperazin-1-yl)methyl)-3-(trifluoromethyl)phenyl)-1-methyl-3,4-dihydroisoquinoline-2(1H)-carboxamide] it was under 500 nM; in that of `CCN1CCN(Cc2ccc(NC(=O)N3Cc4cc(Oc5ccnc6[nH]c(C)cc56)ccc4C(O)C3)cc2C(F)(F)F)CC1` (stereo not drawn) [compound 18, N-(4-((4-ethylpiperazin-1-yl)methyl)-3-(trifluoromethyl)phenyl)-4-hydroxy-7-((2-methyl-1H-pyrrolo[2,3-b]pyridin-4-yl)oxy)-3,4-dihydroisoquinoline-2(1H)-carboxamide], under 500 nM. With `CCN1CCN(Cc2ccc(NC(=O)N3CCc4ccc(Oc5cc(NC)ncn5)cc4C3)cc2C(F)(F)F)CC1` [II-1], the 50% inhibitory concentration (IC50) is under 500 nM. For the compound `Cc1cc2c(Oc3ccc4c(c3)[C@H](C)N(C(=O)Nc3cnc(OC5CCN(C)CC5O)c(C(F)(F)F)c3)CC4)ccnc2[nH]1` (stereo in doubt) [VI-9], the IC50 is 500 to 5000 nM.

`CCN1CCN(Cc2ccc(NC(=O)N3Cc4cc(Oc5ccnc6[nH]ncc56)cnc4C(C)C3)cc2C(F)(F)F)CC1` (stereo not drawn) [VII-15] registered a half-inhibitory concentration (IC50) of under 500 nM. The same measure, in the same setting: in the case of `CCN1CCN(Cc2ccc(NC(=O)N3CCc4ccc(Oc5ccnc6[nH]ccc56)cc4C3)cc2C(F)(F)F)CC1` [compound 2, 7-((1H-Pyrrolo[2,3-b]pyridin-4-yl)oxy)-N-(4-((4-ethylpiperazin-1-yl)methyl)-3-(trifluoromethyl)phenyl)-3,4-dihydroisoquinoline-2(1H)-carboxamide] it was under 500 nM; in that of `CCN1CCN(Cc2ccc(NC(=O)N3Cc4cc(Oc5ccnc6[nH]c(C)cc56)cnc4C(C)C3)cc2C(F)(F)F)CC1` (single isomer, unassigned) [VII-20], under 500 nM; in that of `Cc1cc2c(Oc3ccc4c(c3)CN(C(=O)Nc3cnc(OC5CCN(C)CC5)c(C(F)(F)F)c3)CC4C)ccnc2[nH]1` (single isomer, unassigned) [IV-39], under 500 nM. Same read-out and setting: in the case of `CCN1CCN(Cc2ccc(NC(=O)N3CCc4c(C)cc(Oc5ccnc6[nH]ccc56)cc4C3C)cc2C(F)(F)F)CC1` (stereo not drawn) [IV-5] it was 500 to 5000 nM; in that of `CCN1CCN(Cc2ccc(NC(=O)C3CCc4ccc(Oc5ccnc6[nH]c(C)cc56)cc4N3C)cc2C(F)(F)F)CC1` (stereo not drawn) [compound 16, N-(4-((4-ethylpiperazin-1-yl)methyl)-3-(trifluoromethyl)phenyl)-1-methyl-7-((2-methyl-1H-pyrrolo[2,3-b]pyridin-4-yl)oxy)-1,2,3,4-tetrahydroquinoline-2-carboxamide], under 500 nM.

The same assay, now with this note: 1 mM ATP, Table 20.
`CCN1CCN(Cc2ccc(NC(=O)N3Cc4cc(Oc5ccnc6[nH]c(CO)cc56)cnc4[C@H](C)C3)cc2C(F)(F)F)CC1` [XIV-14] returned a half-inhibitory concentration (IC50) of under 500 nM. The same measure, in the same setting: in the case of `CC[C@@H]1CN(C(=O)Nc2cnc(OC3CCN(C)CC3)c(C(F)(F)F)c2)Cc2cc(Oc3ccnc4[nH]c(C5(O)CC5)cc34)cnc21` [XIV-77] it was under 500 nM; in that of `CC[C@H]1CN(C(=O)Nc2ccc(CN3CCN(C)CC3)c(C(F)F)c2)Cc2cc(Oc3ccnc4[nH]c(CO)cc34)cnc21` [XIV-47], under 500 nM. Compound `Cc1cc2c(Oc3cnc4c(c3)CN(C(=O)Nc3ccc(CN5CC6CCC(C5)N6)c(C(F)(F)F)c3)C[C@H]4C)ccnc2[nH]1` [XIV-101] gave a half-maximal inhibitory concentration (IC50) of 500 to 5000 nM. Same read-out and setting: in the case of `C[C@@H]1Cc2ccc(Oc3ccnc4[nH]c(C(=O)N(C)C)cc34)cc2CN1C(=O)Nc1ccc(CN2CCN(C)CC2)c(C(F)(F)F)c1` [XVI-1] it was under 500 nM; in that of `CC[C@H]1CN(C(=O)Nc2ccc(CN3CCNCC3)c(C(F)(F)F)c2)Cc2cc(Oc3ncnc4[nH]c(C(=O)NC)cc34)cnc21` [XIV-127], under 500 nM; in that of `CC[C@H]1CN(C(=O)Nc2ccc(CN3CCN(C)CC3)c(C(F)(F)F)c2)Cc2cc(Oc3ccnc4[nH]c(C(C)C)cc34)cnc21` [XIV-153], under 500 nM. `CCC1CN(C(=O)Nc2ccc(CN3CCN(CC)CC3)c(C(F)(F)F)c2)Cc2cc(Oc3ccnc4[nH]c(C5CCN(C(=O)C6CC6)CC5)cc34)ccc21` (stereo not drawn) [XV-40] showed an IC50 of under 500 nM. Take `C[C@H]1CN(C(=O)Nc2ccc(CN3CCN(C)CC3)c(C(F)F)c2)Cc2cc(Oc3ccnc4[nH]c(C5(O)COC5)cc34)ccc21` [XV-33]: the IC50 is under 500 nM.

For `CC[C@H]1CN(C(=O)Nc2ccc(CN3CCNCC3)c(C(F)(F)F)c2)Cc2cc(Oc3ccnc4[nH]c(-c5nnc(C)o5)cc34)cnc21` [XIV-113], the IC50 is under 500 nM.

The compound `CCN1CCN(Cc2ccc(NC(=O)N3CCc4ncc(Oc5cccc6[nH]ccc56)cc4C3C)cc2C(F)(F)F)CC1` (stereo not drawn) [XI-12] gave a half-inhibitory concentration (IC50) of over 10000 nM.

For `CC[C@H]1CN(C(=O)Nc2ccc(CN3CCN(C)CC3)c(C(F)(F)F)c2)Cc2cc(Oc3c(F)cnc4[nH]c(C(=O)N(C)C)cc34)cnc21` [XIV-143], the half-maximal inhibitory concentration (IC50) was under 500 nM. The same measure, in the same setting: in the case of `CC[C@H]1CN(C(=O)Nc2ccc(CN3CCN(C)CC3)c(C(F)(F)F)c2)Cc2cc(Oc3ccnn4cc(C(=O)NC)nc34)cnc21` [XIV-120] it was 500 to 5000 nM; in that of `CC[C@@H]1CN(C(=O)Nc2cnc(O[C@H]3CCN[C@@H](C)C3)c(C(F)(F)F)c2)Cc2cc(Oc3ccnc4[nH]c(C)cc34)cnc21` [XIV-71], 500 to 5000 nM. On the same count and under the same terms, in the case of `CC[C@H]1CN(C(=O)Nc2ccc(CN3CCN(C)CC3)c(C(F)(F)F)c2)Cc2cc(Oc3ccnc4[nH]c(C(=O)N(C)C)cc34)cnc21` [compound 21, (8S)-3-[[2-(dimethylcarbamoyl)-1H-pyrrolo[2,3-b]pyridin-4-yl]oxy]-8-ethyl-N-[4-[(4-methylpiperazin-1-yl)methyl]-3-(trifluoromethyl)phenyl]-7,8-dihydro-5H-1,6-naphthyridine-6-carboxamide] it was under 500 nM; in that of `CC[C@H]1CN(C(=O)Nc2ccc(CN3CCN(CC)CC3)c(C(F)(F)F)c2)Cc2cc(Oc3ccnc4[nH]c(CCOC)cc34)cnc21` [XIV-22], under 500 nM. In the case of `CCN1CCN(Cc2ccc(NC(=O)N3CCc4ncc(Oc5ncnc6[nH]c(C)cc56)cc4[C@@H]3C)cc2C(F)(F)F)CC1` [XI-7], the IC50 was in the range of 500 to 5000 nM. Regarding `CC[C@@H]1CN(C(=O)Nc2cnc(CN3CCN(CC)CC3)c(C(F)(F)F)c2)Cc2cc(Oc3ccnc4[nH]c(CCOC)cc34)cnc21` [XIV-26], the IC50 is under 500 nM. The same measure, in the same setting: in the case of `CC[C@H]1CN(C(=O)Nc2ccc(CN3CCNCC3)c(C(F)(F)F)c2)Cc2cc(Oc3ncnc4[nH]c(C(=O)N(C)C)cc34)cnc21` [XIV-126] it was under 500 nM. The same measure, in the same setting: in the case of `C[C@@H]1Cc2ccc(Oc3c(F)cnc4[nH]c(C5(O)CC5)cc34)cc2CN1C(=O)Nc1cnc(CN2CCN(C)CC2)c(C(F)(F)F)c1` [XVI-8] it was under 500 nM.
